Assay results taken from article PMC4071002, “Identification and In Vitro Reactivity of Celiac Immunoactive Peptides in an Apparent Gluten-Free Beer” (PLoS ONE, 2014).
Residues, ends and D or L forms follow the SMILES beside them.

Test system: moAb A1 (anti-gliadin 33-mer)
Experiment: A1 competitive ELISA (immobilized gliadin, A1-HRP)
Assay type: binding
Settings: Figure 2A
Method: Maxisorp microtitre plates (Nunc, Roskilde, Denmark) were coated with gliadin solution (Sigma, St Louis, MO, USA) and incubated overnight at 4°C. The plates were washed with phosphate-buffered saline (PBS) containing 0.05% Tween 20 and blocked with 5% non-fat dry milk in PBS for 1 h at room temperature (RT). 33-mer peptide was used as standard. Serial dilutions of peptides were made in PBS-bovine serum albumin (BSA) 3%, to each of which was added G12-HRP or A1-HRP antibody solution [14]. The samples were pre-incubated at RT, and then added to the wells. After 30 min of incubation at RT, the plates were washed and substrate solution (TMB, Sigma) was added. The reaction was stopped with 1 M sulphuric acid, and the absorbance at 450 nm was measured (microplate reader UVM340; Asys Hitech GmbH, Eugendorf, Austria). Two separate assays were performed, each with three repetitions.
Peptide curves were obtained by plotting percentage maximum absorbance against logarithm of antigen concentration. The software package Sigma Plot 9.0 (Systat Software, Inc., Point Richmond, CA, USA) was used to calculate IC50 and the cross-reactivity (CR) for each peptide. The IC50 is defined as the concentration that produces a reduction of 50% in the peak signal in the ELISA. The CR was determined as (IC50 of the peptide that presents the greatest affinity for the antibody/IC50 of each peptide assayed) x 100.

- moAb A1 IC50 (competitive ELISA, gliadin-coated plates, A1-HRP, 30 min RT, absorbance 450 nm, two assays, three replicates each): 0.60 µg/mL
Structure (SMILES): CC(C)C[C@H](NC(=O)[C@H](CCC(N)=O)NC(=O)[C@@H](N)CC(C)C)C(=O)N[C@@H](CCC(N)=O)C(=O)N1CCC[C@H]1C(=O)N[C@@H](Cc1ccccc1)C(=O)N1CCC[C@H]1C(=O)N[C@@H](CCC(N)=O)C(=O)N1CCC[C@H]1C(=O)N[C@@H](CCC(N)=O)C(=O)N[C@@H](CC(C)C)C(=O)N1CCC[C@H]1C(=O)N[C@@H](Cc1ccc(O)cc1)C(=O)N1CCC[C@H]1C(=O)N[C@@H](CCC(N)=O)C(=O)N1CCC[C@H]1C(=O)N[C@@H](CCC(N)=O)C(=O)N[C@@H](CC(C)C)C(=O)N1CCC[C@H]1C(=O)N[C@@H](Cc1ccc(O)cc1)C(=O)N1CCC[C@H]1C(=O)N[C@@H](CCC(N)=O)C(=O)N1CCC[C@H]1C(=O)N[C@@H](CCC(N)=O)C(=O)N[C@@H](CC(C)C)C(=O)N1CCC[C@H]1C(=O)N[C@@H](Cc1ccc(O)cc1)C(=O)N1CCC[C@H]1C(=O)N[C@@H](CCC(N)=O)C(=O)N1CCC[C@H]1C(=O)N[C@@H](CCC(N)=O)C(=O)N1CCC[C@H]1C(=O)N[C@@H](Cc1ccccc1)C(=O)O [33-mer] (H-LQLQPFPQPQLPYPQPQLPYPQPQLPYPQPQPF-OH; N-terminus and C-terminus assumed)
- moAb A1 CR (cross-reactivity = (IC50 of peptide with greatest affinity / IC50 of each peptide) x 100, PP 24.1 = 100): 241.67%
